In PubChem BioAssay (NCI):
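Compound exposure: 48 hours, 5 concentrations, 96-well plates. TGI is the concentration that stops growth completely.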

Key:
Experiment in all cases: NCI anticancer screen, dose series, 48 h
A549 NSCLC = test system: A549 NSCLC
COLO 205 colon = test system: COLO 205 colon
DU-145 prostate = test system: DU-145 prostate
KM12 colon = test system: KM12 colon
MDA-MB-435 = test system: MDA-MB-435
OVCAR-8 ovarian = test system: OVCAR-8 ovarian
RXF 393 renal = test system: RXF 393 renal
SK-OV-3 ovarian = test system: SK-OV-3 ovarian
SW-620 colon = test system: SW-620 colon
IGROV1 ovarian = test system: IGROV1 ovarian

| Compound | TGI (A549 NSCLC) [µM] | TGI (COLO 205 colon) [µM] | TGI (DU-145 prostate) [µM] | TGI (KM12 colon) [µM] | TGI (MDA-MB-435) [µM] | TGI (OVCAR-8 ovarian) [µM] | TGI (RXF 393 renal) [µM] | TGI (SK-OV-3 ovarian) [µM] | TGI (SW-620 colon) [µM] | TGI (IGROV1 ovarian) [µM] |
| --- | --- | --- | --- | --- | --- | --- | --- | --- | --- | --- |
| CC(C)(C)OC(=O)N[C@@H](Cc1ccccc1)C(=O)N1CC[C@@H](C(=O)N2[C@H]3CC4CC[C@@]3(CS2(=O)=O)C4(C)C)N1 | > 100 | > 100 | > 100 | > 100 | > 100 | > 100 | > 100 | > 100 | > 100 |  |
| CN(NC(=O)/C(=C/C=C/c1ccccc1)NC(=O)c1ccccc1)C1=C(Cl)C(=O)[N+](c2ccccc2)=CC1 | 93.8 | 33.7 | > 100 | 34 | 32.9 | 40.3 | 53.8 | > 100 | 33.8 | 46.8 |
| O=C(n1c(=O)n(-c2ccc([N+](=O)[O-])cc2)c(=O)n1C(=O)C(Cl)(Cl)Cl)C(Cl)(Cl)Cl | > 100 | > 100 | > 100 | > 100 | > 100 | > 100 | > 100 | > 100 | > 100 | > 100 |
| C[N+](C)(C)c1nc(N)nc2c1ncn2C1OC(CO)C(O)C1O (stereo unspecified) | > 100 | > 100 | > 100 | > 100 | > 100 | > 100 | > 100 | > 100 | > 100 | > 100 |
| CNc1ccc([N+](=O)[O-])cc1C(=O)N1CCC[C@H]1CO | > 100 | > 100 | > 100 | > 100 | > 100 | > 100 | > 100 | > 100 | > 100 | > 100 |
| Cc1ccc(Oc2cc(C)ccc2P(=O)(O)O)cc1 | > 100 | > 100 | > 100 | > 100 | > 100 | > 100 | > 100 | > 100 | > 100 | > 100 |
| Cc1ccc2c(=O)c3c(O)c4c(cc3n(C)c2c1)OC(C)(C)C=C4 | > 10 | > 10 | > 10 | > 10 | > 10 | > 10 | > 10 | > 10 | > 10 | > 10 |
| Nc1ncc(Cc2nn3c(COc4ccc(Cl)cc4)nnc3s2)s1 | > 100 | > 100 | > 100 | > 100 | > 100 | > 100 | > 100 | > 100 | > 100 | > 100 |
| COC(=O)C1CC(C=O)=C(SC)N1 (stereo unspecified) | > 50 | > 50 | > 50 | > 50 | > 50 | > 50 | > 50 | > 50 | > 50 | > 50 |
| CC(C)(CN1CCCCC1)C(=O)CC(SCCS(=O)(=O)O)c1ccc(Cl)c(Cl)c1 (stereo unspecified) | 21 | 7.25 | 23.4 | 23 | 4.57 | 8.45 | 11.2 | 45 | 4.61 | 13.5 |
| C[C@@H](CC(O)C(O)C(C)(C)O)C1CCC23CC12CCC1[C@@]2(C)CCC(=O)C(C)(C)C2CC(OC2OC(CO)C(O)C(O)C2O)[C@]13C (stereo partly specified) | > 10 | > 10 | > 10 | > 10 | > 10 | > 10 | > 10 | > 10 | > 10 | > 10 |
| NC(=O)CN1CCN(c2nc(N3CCCC3)c3nc(Cl)c(NCc4ccccc4)nc3n2)CC1 | 35.2 | 15.8 | 28.8 | 22 | 20.5 | > 50 | 16.2 | 20.4 | 31.4 | 25.5 |
| O=C(NC(Cc1c[nH]c2ccccc12)C(=O)O)/C(=C/c1ccccc1)NC(=O)c1ccccc1 (stereo unspecified) | > 100 | > 100 | > 100 | > 100 | > 100 | > 100 | > 100 | > 100 | > 100 | > 100 |
| CC(=O)Nc1oc(C)nc1C#N | > 100 |  | > 100 | > 100 | > 100 | > 100 | > 100 | > 100 | > 100 | > 100 |
| COc1ccc(/C=C(\C#N)c2nc(-c3cc4ccccc4oc3=O)cs2)cc1 | > 100 | > 100 | > 100 | > 100 | > 100 | 44.4 | 45.4 | 36.6 | 66.8 | 62.2 |
| C=C1C(=O)O[C@H]2[C@@H](O)[C@H](C)CCC/C(C)=C/CC[C@@]3(C)O[C@@H]3C[C@@H]12 | > 60.9 | 12.3 | 19.1 | 33.1 | 29.5 | > 51.2 | 16.4 | 34.2 | 39.9 | 15.6 |
| NC(=O)Nc1n[nH]c(-c2ccccc2)n1 | > 100 | > 100 | > 100 | > 100 | > 100 | > 100 | > 100 | > 100 | > 100 | > 100 |
| CC(C)=CCC/C(C)=C/CCC1(C)C2COC(=O)C21 (stereo unspecified) |  | > 100 | > 100 | > 100 | > 100 |  | > 100 | > 100 | > 100 | > 100 |
| COC(=O)[C@]12CCC(=O)N1[C@H](C(=O)O)Cc1c2[nH]c2ccccc12 | > 100 | > 100 | > 100 | > 100 | > 100 | > 100 | > 100 | > 100 | > 100 | > 100 |
| O/N=C1/CCCCC1NO (stereo unspecified) | > 100 | > 100 | > 100 | > 100 | > 100 | > 100 | > 100 | > 100 | > 100 | > 100 |
| O=C1C(=O)C(CCCO)(CCCO)CCCCCCCCC1(CCCO)CCCO | > 100 | > 100 | > 100 | > 100 | > 100 | > 100 | 68.8 | > 100 | > 100 | > 100 |
